One test deals with L6. Briefly: Cytotoxicity against rat L6 cells after 72 hrs by microplate fluorimetry. The test is classed as cell-based. The note with it: L6, 72 h.
The subject of the next test is Plasmodium falciparum. Briefly: Antiplasmodial activity against chloroquine- and pyrimethamine-resistant Plasmodium falciparum K1 infected in human red blood cells assessed as [3H]hypoxanthine incorporation after 48 hrs by liquid scintillation counting. The test is classed as functional, organism-based.
The test system of test [1] is Trypanosoma brucei rhodesiense. Briefly: Antiparasitic activity against Trypanosoma brucei rhodesiense STIB 900 bloodstream form after 72 hrs by microplate fluorimetry. The test is classed as functional, organism-based. To be noted: STIB 900, 72 h.

Molecules are shown by their SMILES. A value given as a limit tells only on which side of the number the result lay.

Take `CC1(C)CC[C@]2(C)CC=C3[C@]4(C)CC[C@H]5C(C)(C)C(=O)CC[C@]5(C)[C@H]4CC[C@@]3(C)[C@@H]2C1` [TARAXERONE]: the IC50 (as a rule, the point on the concentration scale where inhibition reaches its midpoint) in the test with L6 is > 90 µM; in the test on Plasmodium falciparum it was > 10 µM; in test [1], > 90 µM.

Take `CC1(C)OC(=O)CC[C@]2(C)[C@H]3CC[C@H]4[C@@](C)(CC[C@@]5(C)C(C)(C)CCC[C@]45C)O[C@]3(C)CC[C@@H]12` [CUPACINOXEPIN]: the results for the 50% inhibitory concentration (IC50) (in the test on L6; in the test with Plasmodium falciparum; in test [1]) were > 90 µM, 8.7 µM and 71.6 µM, respectively.

Turning to `CCCCCC(=O)Cc1cc(OC)cc(O)c1C(=O)Oc1cc(CC(=O)CCCCC)c(C(=O)OC)c(OC)c1` [GUSTASTATIN], the half-maximal inhibitory concentration (IC50) is > 90 µM in the test with L6, > 9 µM in the test on Plasmodium falciparum and 19.4 µM in test [1].

For the compound `CC1(C)CC[C@]2(C)CC=C3[C@]4(C)CC[C@H]5C(C)(C)[C@@H](O)CC[C@]5(C)[C@H]4CC[C@@]3(C)[C@@H]2C1` [TARAXEROL], the IC50 in the test on L6 is > 90 µM; in the test with Plasmodium falciparum, 8.5 µM; in test [1], 10.5 µM.

For the compound `CC(=O)O[C@@H]1[C@@H](OC(C)=O)[C@H](C)O[C@@H](O[C@H]2[C@H](OC/C=C(\C)CC/C=C(\C)CC/C=C(\C)CCC=C(C)C)O[C@H](CO)[C@@H](O)[C@@H]2O)[C@@H]1OC(C)=O`, the half-inhibitory concentration (IC50) in the test with L6 was 8.7 µM; in the test on Plasmodium falciparum, 2.1 µM; in test [1], 15.8 µM.

Take `CC(C)=CCCC(C)C1CC=C(C)C(O)C1O` (configuration not stated): the IC50 with L6 was > 90 µM; in the test on Plasmodium falciparum, > 20 µM; in test [1], 38.2 µM.

Turning to `C=C(C)[C@@H]1CC[C@]2(C)CC[C@]3(C)[C@H](CC[C@@H]4[C@@]5(C)CCC(=O)C(C)(C)[C@@H]5CC[C@]43C)[C@@H]12` [LUPENONE], the figures for the IC50 (in the test on L6; in the test with Plasmodium falciparum; in test [1]) were > 90 µM, 4.7 µM and > 90 µM, respectively.

Turning to `CC(=O)OC[C@H]1O[C@@H](OC/C=C(\C)CC/C=C(\C)CC/C=C(\C)CCC=C(C)C)[C@H](O[C@@H]2O[C@@H](C)[C@H](OC(C)=O)[C@@H](OC(C)=O)[C@H]2OC(C)=O)[C@@H](O)[C@@H]1O` [CUPACINOSIDE], the values for the IC50 (with L6; with Plasmodium falciparum; in test [1]) were 11.6 µM, 1.3 µM and 4.6 µM, respectively.

Turning to `C=C1CC[C@@H]2O[C@]2(C)CC[C@@H]2[C@@H]1CC2(C)C`, the 50% inhibitory concentration (IC50) in the test with L6 is > 90 µM; with Plasmodium falciparum, > 25 µM; in test [1] it was > 90 µM.

With `COc1cc2ccc(=O)oc2cc1O` [SCOPOLETIN], the values for the half-maximal inhibitory concentration (IC50) (in the test on L6; in the test on Plasmodium falciparum; in test [1]) were > 90 µM, > 25 µM and > 90 µM, respectively.

Consider `COc1cc(C)c2c(=O)c3c(O)cc(OC)cc3oc2c1` [LICHEXANTHONE], for which the IC50 was 52.1 µM in the test on L6, > 20 µM in the test on Plasmodium falciparum and > 90 µM in test [1].

As for `C=C(C)[C@@H]1CC[C@]2(CO)CC[C@]3(C)[C@H](CC[C@@H]4[C@@]5(C)CCC(=O)C(C)(C)[C@@H]5CC[C@]43C)[C@@H]12` [BETULONE], the 50% inhibitory concentration (IC50) in the test with L6 was 22.2 µM; in the test with Plasmodium falciparum, 3 µM; in test [1] it was 18.9 µM.

In the case of `CC(C)=CCC[C@H](C)[C@@H]1C=C[C@](C)(O)[C@@H](O)C1`, the half-maximal inhibitory concentration (IC50) is > 90 µM in the test with L6, > 20 µM in the test on Plasmodium falciparum and 61.3 µM in test [1].

Regarding `CC(C)[C@@]12CC[C@]3(C)[C@H]4CC[C@@H]5[C@@]6(C)CCC(=O)C(C)(C)[C@@H]6CC[C@@]5(C)[C@]4(C)CC[C@@]13O2`, the IC50 in the test on L6 was > 90 µM; with Plasmodium falciparum it was > 10 µM; in test [1] it was > 90 µM.

For the origin of these results see ChEMBL document CHEMBL1773047, “Antiparasitic compounds from Cupania cinerea with activities against Plasmodium falciparum and Trypanosoma brucei rhodesiense” (J Nat Prod, 2011).
